The source of these data is PubChem BioAssay (NCI).

One may read the TGI as the concentration giving total growth inhibition. A higher TGI goes with lower sensitivity of the cells.

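The compound was tested at five concentrations on cells cultured in 96-well plates, with a 48-hour exposure period. TGI marks complete inhibition of growth.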

Common to all, as to assay: DTP human tumour cell line panel, 48 h
The subject of experiment [1] is 786-0 renal.
For experiment [2], the system named is A498 renal.
The subject of experiment [3] is A549 NSCLC.
Experiment [4] concerns BT-549 breast.
Experiment [5] has as its system CCRF-CEM leukemia.
The subject of experiment [6] is COLO 205 colon.
Experiment [7] relates to DU-145 prostate.
Experiment [8] concerns HL-60(TB) leukemia.
Experiment [9] deals with HS 578T breast.
The subject of experiment [10] is IGROV1 ovarian.
Experiment [11] concerns K-562 leukemia.
The subject of experiment [12] is SF-295 CNS.
The test system of experiment [13] is SK-MEL-28 melanoma.
Experiment [14] deals with SN12C renal.
Experiment [15] relates to U251 CNS.
The test system of experiment [16] is UACC-257 melanoma.
Experiment [17] concerns HOP-62 NSCLC.
The test system of experiment [18] is RXF 393 renal.
The subject of experiment [19] is OVCAR-4 ovarian.

Regarding `COC(=O)[C@H]1C[C@H]1NC(=O)C(CC(=O)OCc1ccccc1)NC(=O)OCc1ccccc1` (some centres undefined), the TGI in experiment [1] was above 100 µM; in experiment [2] it was above 100 µM; in [3], above 100 µM; in experiment [4], 55.9 µM; in experiment [5] it was above 100 µM; in experiment [6], 43.2 µM. Also, the concentration for total growth inhibition (TGI) was above 100 µM in experiment [7]; 39.6 µM in experiment [8]; above 100 µM in experiment [9]; above 100 µM in experiment [10]; above 100 µM in experiment [11]; above 100 µM in experiment [12]. The TGI in experiment [13], in experiment [14], in [15] and in [16] was above 100 µM throughout.
Take `COC(=O)C1C(OC(=O)C(Cl)(c2ccccc2)c2ccccc2)CC2CCC1N2C` (centres undefined): the total growth inhibition concentration (TGI) in experiment [1], in experiment [3], in [4], in experiment [5], in experiment [6] and in experiment [7] was above 100 µM each time. Further, the TGI in experiment [8], in experiment [17], in experiment [10], in experiment [11], in experiment [18] and in experiment [12] was above 100 µM throughout. Also, the total growth inhibition concentration (TGI) in [13], in experiment [14], in experiment [15] and in [16] was above 100 µM in each case.
For the compound `COc1cc(/C=C/C(=O)OCCc2ccccc2)ccc1O`, the concentration for total growth inhibition (TGI) in [1] came to 30.4 µM; in experiment [3], 38.9 µM; in [4], 28.1 µM; in experiment [6] it was 34.8 µM; in [7] it was 30.4 µM; in experiment [8], 40.2 µM. In addition, the concentration for total growth inhibition (TGI) in experiment [17] was determined as 33.4 µM; in experiment [9], 50 µM; in [10] it was 28 µM; in experiment [11] it was 85.4 µM; in experiment [19], 26.1 µM; in [12] it was 35.3 µM. Further, the total growth inhibition concentration (TGI) in experiment [13] came out at 26.9 µM; in experiment [14], 36.7 µM; in experiment [15], 29.5 µM; in experiment [16], 32.4 µM.
For the compound `Cc1ccc(/C(=C\C(=O)C(=O)NC23CC4CC(CC(C4)C2)C3)Sc2ccccc2)cc1`, the TGI in [1], in [2], in [5], in experiment [6], in experiment [7] and in experiment [8] was above 10 µM in each case. Besides, the TGI in experiment [17], in experiment [9], in experiment [10], in experiment [11], in [19] and in experiment [18] was above 10 µM throughout. Further, the TGI in experiment [12], in experiment [13], in [14], in experiment [15] and in [16] was above 10 µM each time.
For `Cc1cccc(/C=C2\CCCc3ccccc3C2=O)c1`, the total growth inhibition concentration (TGI) is above 100 µM in experiment [1]; above 100 µM in [3]; 75.6 µM in experiment [4]; 35.1 µM in [5]; 35.8 µM in experiment [6]; above 100 µM in experiment [7]. Also, the concentration for total growth inhibition (TGI) in experiment [8] is 29 µM; in [17], 99.4 µM; in [9], 32.6 µM; in [10], 59.6 µM; in experiment [11] it was 48.8 µM; in experiment [19] it was 47.7 µM. For the same compound, the TGI in experiment [12] came to 41.8 µM; in [13], 59 µM; in experiment [14] it was 38 µM; in experiment [15], 48.5 µM; in experiment [16], 61.8 µM.
With `COc1ccc(/C=C2\N=C3Sc4c(nc[nH]c4=O)N3C2=O)cc1`, the concentration for total growth inhibition (TGI) in experiment [1], in [2], in [3], in [5], in experiment [6] and in experiment [7] was above 100 µM in each case. For the same compound, the total growth inhibition concentration (TGI) in experiment [8], in [17], in experiment [9], in [10], in experiment [11] and in experiment [19] was above 100 µM in each case. Further, the TGI in [18], in [12], in experiment [13], in experiment [14], in experiment [15] and in [16] was above 100 µM in each case.
Turning to `O1C2C1C1OC1C1OC1C1OC21` (centres undefined), the TGI in experiment [1], in [2], in [3], in [4], in [5] and in experiment [6] was above 100 µM throughout. For the same compound, the TGI in experiment [7], in [17], in experiment [9], in [11], in experiment [19] and in experiment [12] was above 100 µM in each case. Further, the TGI in [13], in experiment [14], in [15] and in [16] was above 100 µM throughout.
For the compound `CCOC(=O)N(c1ccccc1)c1cc(=O)n2ccccc2n1`, the total growth inhibition concentration (TGI) in [1], in experiment [2], in [3], in experiment [4], in experiment [5] and in experiment [6] was above 100 µM throughout. Also, the TGI in [7], in experiment [8], in experiment [17], in [10], in experiment [11] and in [19] was above 100 µM each time. The TGI in experiment [18], in experiment [12], in experiment [13], in [14], in experiment [15] and in experiment [16] was above 100 µM in each case.
